From PubChem BioAssay (NCI)
“And” between values parts separate entries of the source, which are not always exact repeats. Equal entries are not always repeated.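 Assay format: 96-well plates, 48-hour exposure. Abbreviation: GI50, concentration required for 50% inhibition of growth. TGI is the concentration that stops growth completely.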

How the values were obtained:
Assay in all cases: growth of human tumour cells (NCI), 48 h
[1] = test system: SNB-75 CNS
[2] = test system: SNB-19 CNS
[3] = test system: T-47D breast
[4] = test system: SK-MEL-28 melanoma
[5] = test system: OVCAR-3 ovarian
[6] = test system: HL-60(TB) leukemia
[7] = test system: SK-MEL-2 melanoma
[8] = test system: U251 CNS
[9] = test system: NCI-H23 lung
[10] = test system: SR leukemia

SMILES	GI50 [1] [µM]	TGI [1]	GI50 [2] [µM]	TGI [2] [µM]	GI50 [3] [µM]	TGI [3] [µM]	GI50 [4] [µM]	TGI [4]	GI50 [5] [µM]	TGI [5]	GI50 [6] [µM]	TGI [6]	GI50 [7] [µM]	TGI [7]	GI50 [8] [µM]	TGI [8]	GI50 [9] [µM]	TGI [9]	GI50 [10] [µM]	TGI [10] [µM]
N#Cc1c2ccccc2c2nnc3ccc(C(F)(F)F)cc3n12	47.6	> 100 µM	> 100	> 100	> 100	> 100	> 100	> 100 µM	38.2	> 100 µM	40	> 100 µM	23.5	85.2 µM	28.9	> 100 µM	33.5	> 100 µM	0.214	> 100
O=C(O)CNCCc1ccccc1		> 100 µM		> 100		> 100		> 100 µM		> 100 µM		> 100 µM		> 100 µM		> 100 µM		> 100 µM		> 100
O=C(O)c1cn(C2CC2)c2cc(N3CCN(C(=O)Nc4nc(-c5ccc(Br)cc5)cs4)CC3)c(F)cc2c1=O	0.715	> 100 µM	1.41	> 100	1.57	> 100	4.08	> 100 µM	1.42	> 100 µM					1.96	> 100 µM	1.43	> 100 µM	0.454	> 100
O=C(Cc1ccc(Nc2ccnc(C(F)(F)F)c2)cc1)N/N=C/c1ccccc1O	4.81	79.3 µM	4.36	> 100	3.26	17.7	3.89	61.4 µM	0.793	25.8 µM	1.9	5.44 µM	3.12	24.5 µM	1.87	> 54.8 µM	4.23	> 59.1 µM	0.352	4.61
CCOC(=O)Nc1ccc2c(c1)N(C(=O)CCN(CC)CC)c1ccccc1S2	11.7	39.2 µM and 62.7 µM	13.5	41.1		87.9	60.3	57.1 µM and 126 µM	42.3	> 78.9 µM and 107 µM	16.1	45.9 µM and 57.7 µM	30.5	43.6 µM and 83.7 µM	39.8	> 72.1 µM and 108 µM	36.4	> 90.5 µM and 114 µM		43.4
Cc1cc(C(O)(c2ccc(Nc3ccccc3)cc2)c2ccc(Nc3ccc(S(=O)(=O)O)cc3)cc2)ccc1N (stereo unspecified)	1.29	30.9 µM	1.39	3.48	0.609	3.18			1.11	2.49 µM	1.66	6.12 µM	1.55	4.68 µM	0.772	2.05 µM	1.69	3.56 µM	0.713	> 100
Oc1ccc(Cc2ccc(O)c(C3CC(c4ccc(Cl)cc4)=NN3)c2)cc1C1CC(c2ccc(Cl)cc2)=NN1 (stereo unspecified)	3.7	> 82.3 µM	3.65	> 43.6	3.15	> 39.7	5.74	> 49.9 µM	2.71	16.5 µM	2.73	> 100 µM	2.96	10.5 µM	2.06	33.6 µM	3.07	> 37.1 µM	2.77	> 100
Cn1c(=O)c2[nH]c(CCCc3ccc([N+](=O)[O-])cc3)nc2n(C)c1=O		> 100 µM		> 100		> 100		> 100 µM		> 100 µM				> 100 µM		> 100 µM		> 100 µM		> 100
NCCCNc1nc2ccc(Cl)cc2c2c(=O)c3cc(F)ccc3sc12	4.15	19.1 µM	9.43	25.4	9.65	34.3	10.1	24.2 µM	1.92	4.03 µM	3.13	10.7 µM	12.4	33.3 µM			5.61	21.2 µM	2.1	5.37
N#Cc1c2ccccc2c2nnc3ccccc3n12	28.3	> 100 µM	41.1	> 100	> 100	> 100	78.6	> 100 µM	59.7	> 100 µM	> 100	> 100 µM			17.7	70 µM			32.7	> 100
CCC(C)CC(C)C(=O)c1c(O)ccn(O)c1=O (stereo unspecified)	4.12	> 100 µM	1.19	> 100	4.12	76.9	2.27	> 100 µM	0.415	45.3 µM	0.473	12.6 µM	3.63	48.6 µM	2.14	> 100 µM	1.98	> 100 µM	0.498	18.3
COc1cc2c3c(n(CCCN4CCCNCC4)c(=O)c2cc1OC)-c1cc2c(cc1C3=O)OCO2	0.754	7.66 µM	1.26	9.62	0.984	7.98	2.49	14.1 µM	2.52	7.66 µM	0.147	0.976 µM	3.7	17.6 µM	0.181	2.91 µM	0.346	2.57 µM		
O=C(O)c1ccc(Oc2nc3ccccc3s2)cc1				> 100		> 100		> 100 µM		> 100 µM		> 100 µM		> 100 µM		> 100 µM		> 100 µM		> 100
CCN1C(=O)N(CC)C2C1NC(=S)N2/N=C/C=C/c1ccccc1OC (stereo unspecified)	0.0389	> 100 µM	0.0482	> 100	34.6	> 100	16.1	> 100 µM	0.0351	1.16 µM	0.0264	0.0722 µM	1.1	> 100 µM	0.0427	> 100 µM	0.0412	> 100 µM	0.0387	> 100
CS(=N)(=O)CCC(N)P(=O)(O)O (stereo unspecified)				> 100		> 100		> 100 µM		> 100 µM		> 100 µM		> 100 µM		> 100 µM		> 100 µM		> 100
